{
  "source": "patent US20240058375A1",
  "about": "“CO-FORMULATION OF POLYMYXINS FOR INHALATION” (priority 2021, published 2024)",
  "key": {"[1]": {"tested_on": "A549 cells", "test": "Mitochondrial superoxide formation (MitoSOX Red) in A549 cells", "type": "cell-based, Human", "conditions": "1.0 mM polymyxin B alone, 24 h", "description": "(§1) The attenuation of mitochondrial superoxide formation and loss of mitochondrial membrane potential caused by polymyxin B were determined. ^18 A549 cells (0.5×10^5 cells/mL) were grown on 8-well chamber slides ([…] polymer coverslip, ibidi, Germany) for overnight at 37° C. Cells were treated with 1.0 mM polymyxin B in the presence and absence of polyaspartic acid (0.25, 1.0 and 5.0 mM). To assess the formation of mitochondrial superoxide and loss of mitochondrial membrane potential MitoSOX Red dye (Invitrogen; excitation and emission wavelengths of 514 and 531 to 622 nm, respectively) and TMRE (Invitrogen; excitation and emission wavelengths of 561 and 568 to 690 nm, respectively) were employed, respectively. Nuclei were stained with Hoechst 33342 (Invitrogen; excitation and emission wavelengths of 405 and 410 to 551 nm, respectively) to allow cell counting. Fluorescence intensity was quantified by confocal laser scanning microscopy (Leica SP8 inverted microscope equipped with a 63× oil immersion objective). The average fluorescence intensity per cell for each treatment was calculated using ImageJ (45, 46). Three random fields containing at least 50 cells per treatment condition were analyzed and the TMRE fluorescence in untreated control cells was set as 100%."}, "[2]": {"tested_on": "A549 cells", "test": "Mitochondrial membrane potential (TMRE) in A549 cells", "type": "cell-based, Human", "conditions": "1.0 mM polymyxin B alone; untreated control 100%", "description": "as §1"}, "[3]": {"tested_on": "Swiss Albino mice", "test": "In vivo pulmonary toxicity, lung histopathology with semiquantitative scoring (SQS)", "description": "The animal study was approved by the Monash Animal Ethics Committee, Monash University (Victoria, Australia). All experiments were conducted in accordance with the Australian Code of Practice for the Care and Use of Animals for Scientific Purposes. Swiss Albino mice (female; age, 6 weeks; body weight, 20 to 25 g) were obtained from the Monash Animal Research Platform (Clayton, Victoria, Australia). […] Animals were housed individually in metabolic cages and had free access to food and water. Mice were intratracheally administered 10 mg/kg of polymyxin B, 120 mg/kg of polyaspartic acid and the combinations of polyaspartic acid with polymyxin B three times a day.\nHistopathological examinations of lungs were performed to assess the pulmonary toxicity by polymyxin B. At 24 h following pulmonary administration, mice were humanely killed and lungs were harvested and fixed in formalin immediately. To avoid any potential artificial damage to the lung epithelium, bronchoalveolar lavage and cardiac puncture were not performed. A semiquantitative scoring (SQS) system was employed to quantify the extent of lung damages. ^20 Briefly, we used the following grades for the severity and nature of the histopathological changes in the lungs: grade 0, no changes or mild changes considered insignificant; grade 1, minimal lesions affecting 1 to 25% of the area; grade 2, multifocal lesions affecting 25 to 50% of the area; and grade 3, severe tissue changes affecting >50% of the area. The grades were given the following scores: grade 0, 0.1; grade 1, 1; grade 2, 4; and grade 3, 10. Percentages of damage across different levels of the lungs were given the following scores: <1%, 0; from 1 to <5%, 1; from 5 to <10%, 2; from 10 to <20%, 3; from 20 to <30%, 4; from 30 to <40%, 5; >40%, 6. The overall lung histology score was determined as the product of the grade and percent damage score. An SQS was assigned the following scores: SQS 0, no significant change; SQS+1, mild damage; SQS+2, mild to moderate damage; SQS+3, moderate damage; SQS+4, moderate to severe damage; and SQS+5, severe damage."}, "[4]": {"tested_on": "A549 cells", "test": "Cell viability of A549 cells, polymyxin B with or without polyaspartic acid, propidium iodide flow cytometry", "type": "cell-based, Human", "conditions": "1.0 mM polymyxin B alone, 24 h", "description": "(§2) Human lung epithelial cells (A549 cells) were obtained from the American Type Culture Collection (ATCC® CCL-185™, Manassas, VA, USA), grown and sub-cultured in Dulbecco's modified Eagle's medium (DMEM) supplemented with 10% fetal bovine serum (FBS). A549 cells (1×10^5 cells/mL, 12-well plate) were seeded in supplemented DMEM at 37° C. in a humidified atmosphere containing 5% CO2 until 70% confluency. All experiments were conducted in three replicates. Cells were treated with 1.0 mM polymyxin B in the presence and absence of polyaspartic acid (0.25, 1.0 and 5.0 mM); and cell viability were examined at 24 h with flow cytometry after staining with propidium iodide. The drug concentrations for different formulations were selected based on our previous results on polymyxin toxicity in human lung epithelial cells. ^18 To assess the protective effect of polyglutamic acid, A549 cells (0.5×10^5 cells/mL, 200 μL/well) were seeded on 96-well plates (#353072, Corning, USA) for overnight at 37° C. Cells were treated with 1.0 mM polymyxin B in the presence and absence of polyglutamic acid (2.5, 5.0 and 10.0 μM). Cell viability was determined at 24 h using propidium iodide staining using EVOS® FL Auto Imaging System (Invitrogen; Approximate fluorescence excitation/emission maxima: 535/617 nm). […] Three random fields containing at least 50 cells per treatment condition were analyzed."}, "[5]": {"tested_on": "A549 cells", "test": "Cell viability of A549 cells, polymyxin B with or without polyglutamic acid, propidium iodide imaging", "type": "cell-based, Human", "conditions": "1.0 mM polymyxin B alone, 24 h", "description": "as §2"}, "[6]": {"conditions": "intratracheal three times a day, 10 mg/kg polymyxin B and/or 120 mg/kg polyaspartic acid, lungs at 24 h"}},
  "data": [
    {"substance": "polymyxin B sulfate", "values": [
      {"measurement": "MitoSOX fluorescence intensity, higher compared to the control", "setting": "[1]", "value": "> 200", "unit": "fold"},
      {"measurement": "Mitochondrial membrane potential compared to the control", "setting": "[2]", "value": "49.5±7.2", "unit": "%"},
      {"measurement": "Histological finding in lung", "setting": "[3]; [6]", "value": "no macroscopic lesion but severe tissue injury"},
      {"measurement": "SQS of lung damage (grade)", "setting": "[3]; [6]", "value": "+2 to +5"},
      {"measurement": "Lung area affected by tissue injury", "setting": "[3]; intratracheal three times a day, 10 mg/kg polymyxin B or 120 mg/kg polyaspartic acid, lungs at 24 h", "value": "25-50%"},
      {"measurement": "Overall semi-quantitative score (SQS) of lung damage", "setting": "[3]; mean±SD, 10 mg/kg polymyxin B alone or co-administered with 120 mg/kg polyaspartic acid", "value": "3.0±1.4"},
      {"measurement": "Cell viability", "setting": "[4]", "value": "36.7±5.1", "unit": "%"},
      {"measurement": "Cell viability", "setting": "[5]", "value": "51.7±5.2", "unit": "%"}
    ]}
  ]
}
